Counter-ions that a name gives are not always drawn.
The compounds below were run on Aβ1-42 production (assay: Cellular assay for inhibition of Aβ1-42 production (H4 APP751 SWE clone 8.20)). Details: 19 h, H4 APP751 SWE clone 8.20 cells, 19 h incubation; class symbols; read-out: Activity Rating (Aβ42 cellular IC50).
Format: cell-based
In short: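 Cells incubate with compound for 19 h (37 °C, 5% CO2), the plate is briefly spun, and antibody mix is added straight to the wells: Wallac-conjugated 565 against the Aβ42 C-terminal neoepitope and APC-conjugated 26D6 against the Aβ N-terminus. After overnight sealing at 4 °C, signal is counted and IC50 fitted.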
`CNc1nc(Nc2cc(F)cc(F)c2)nc2c1CCC2c1ccccc1` (stereo not drawn) [Example 219, N2-(3,5-difluorophenyl)-N4-methyl-7-phenyl-6,7-dihydro-5H-cyclopenta[d]pyrimidine-2,4-diamine] gave an IC50 of over 1000 nM.
Work on `CNc1nc(Nc2ccc(-n3cnc(C)n3)c(OC)c2)nc2c1COCC2c1ccc(F)cc1` (racemic) [Example 54, 8-(4-fluorophenyl)-N2-(3-methoxy-4-(3-methyl-1H-1,2,4-triazol-1-yl)phenyl)-N4-methyl-7,8-dihydro-5H-pyrano[4,3-d]pyrimidine-2,4-diamine] yielded an IC50 of 10 to 100 nM.
In the case of `CNc1nc(Nc2ccnc(C)c2)nc2c1CCC2c1ccccc1` (stereo not drawn) [Example 216, N4-methyl-N2-(2-methylpyridin-4-yl)-7-phenyl-6,7-dihydro-5H-cyclopenta[d]pyrimidine-2,4-diamine], the IC50 is reported as over 1000 nM.
`COc1cc(Nc2nc3c(c(N(C)C)n2)CCC3c2ccc(OC(F)(F)F)cc2)ccc1-n1cnc(Cl)c1` (single isomer, unassigned) [Example 100B, N^2-(4-(4-chloro-1H-imidazol-1-yl)-3-methoxyphenyl)-N^4,N^4-dimethyl-7-(4-(trifluoromethoxy)phenyl)-6,7-dihydro-5H-cyclopenta[d]pyrimidine-2,4-diamine] gave an IC50 of 10 to 100 nM.
Compound `COc1cc(Nc2nc3c(c(N4CC[C@@H](F)C4)n2)CCN(S(C)(=O)=O)C3c2ccc(F)cc2)ccc1-n1cnc(Cl)c1` (stereo partly drawn) [Example 174] has an IC50 of 10 to 100 nM.
For `COc1cc(Nc2nc3c(c(N4CCC(F)C4)n2)COCC3c2ccc(F)cc2)ccc1-n1cnc(Cl)c1` (stereo in doubt) [Example 58A, N-(4-(4-chloro-1H-imidazol-1-yl)-3-methoxyphenyl)-8-(4-fluorophenyl)-4-((S)-3-fluoropyrrolidin-1-yl)-7,8-dihydro-5H-pyrano[4,3-d]pyrimidin-2-amine], the IC50 was 1.5 to 9.9 nM.
With `CNc1nc(Nc2ccc(C(F)(F)F)cc2)nc2c1CCC2c1ccccc1` (stereo not drawn) [Example 239, N4-methyl-7-phenyl-N2-(4-(trifluoromethyl)phenyl)-6,7-dihydro-5H-cyclopenta[d]pyrimidine-2,4-diamine] the IC50 was 100 to 1000 nM.
For `CCNc1nc(Nc2ccc(-n3cnc(Cl)c3)c(OC)c2)nc2c1COCC2c1ccc(C#N)cc1` (racemic) [Example 121, 4-(2-(4-(4-chloro-1H-imidazol-1-yl)-3-methoxyphenylamino)-4-(ethylamino)-7,8-dihydro-5H-pyrano[4,3-d]pyrimidin-8-yl)benzonitrile, TFA], the IC50 was 10 to 100 nM.
Compound `CNc1nc(Nc2ccc(-n3cnc(C)n3)c(OC)c2)nc2c1CC[C@@H]2c1ccccc1Cl` [Example 268B, (R)—N2-(3-methoxy-4-(3-methyl-1H-1,2,4-triazol-1-yl)phenyl)-7-(2-chlorophenyl)-N4-methyl-6,7-dihydro-5H-cyclopenta[d]pyrimidine-2,4-diamine] has an IC50 of 10 to 100 nM.
`CNc1nc(Nc2ccc(C3CC3)cc2)nc2c1CCC2c1ccc(F)cc1` (stereo not drawn) [Example 258, N2-(4-cyclopropylphenyl)-7-(4-fluorophenyl)-N4-methyl-6,7-dihydro-5H-cyclopenta[d]pyrimidine-2,4-diamine] showed an IC50 of over 1000 nM.
Compound `COc1cc(Nc2nc3c(c(N4CC[C@H](F)C4)n2)COC3c2ccc(F)cc2)ccc1-n1cnc(Cl)c1` (single isomer, unassigned) [Example 76] has an IC50 of 10 to 100 nM.
For `Cc1ncnn1-c1ccc(Nc2nc3c(c(N4CC(F)(F)C4)n2)COCC3c2ccc(Cl)cc2)cc1F` (stereo not drawn) [Example 68, 8-(4-chlorophenyl)-4-(3,3-difluoroazetidin-1-yl)-N-(3-fluoro-4-(5-methyl-1H-1,2,4-triazol-1-yl)phenyl)-7,8-dihydro-5H-pyrano[4,3-d]pyrimidin-2-amine], the IC50 was 10 to 100 nM.
`CCNc1nc(Nc2ccc(-n3ncnc3C)c(F)c2)nc2c1CN(S(C)(=O)=O)CC2c1ccc(F)cc1` (stereo not drawn) [Example 157, N4-ethyl-N2-(3-fluoro-4-(5-methyl-1H-1,2,4-triazol-1-yl)phenyl)-6-(methylsulfonyl)-8-(4-fluorophenyl)-5,6,7,8-tetrahydropyrido[4,3-d]pyrimidine-2,4-diamine] gave an IC50 of 10 to 100 nM.
For `COc1cc(Nc2nc3c(c(N(C)C)n2)COCC3c2ccccc2)ccc1-n1cnc(Cl)c1` (racemic) [Example 53, N^2-(4-(4-Chloro-1H-imidazol-1-yl)-3-methoxyphenyl)-N^4,N^4-dimethyl-8-phenyl-7,8-dihydro-5H-pyrano[4,3-d]pyrimidine-2,4-diamine], the IC50 was 10 to 100 nM.
Compound `CNc1nc(Nc2cccc(C#N)c2)nc2c1CCC2c1ccccc1` (stereo not drawn) [Example 233, 3-(4-(methylamino)-7-phenyl-6,7-dihydro-5H-cyclopenta[d]pyrimidin-2-ylamino)benzonitrile] has an IC50 of over 1000 nM.
`COc1cc(Nc2nc3c(c(N4CC(F)(F)C4)n2)COC3c2ccc(F)cc2)ccc1-n1cnc(Cl)c1` (racemic) [Example 80, N-(4-(4-chloro-1H-imidazol-1-yl)-3-methoxyphenyl)-4-(3,3-difluoroazetidin-1-yl)-7-(4-fluorophenyl)-5,7-dihydrofuro[3,4-d]pyrimidin-2-amine] gave an IC50 of 10 to 100 nM.

Same assay, conditions: 19 h, H4 APP751 SWE clone 8.20 cells, 19 h incubation; read-out: Activity Rating (Aβ42 cellular IC50), numeric value
For `CCNc1nc(Nc2ccc(-n3cnc(Cl)c3)c(OC)c2)nc2c1COCC2c1ccc(C#N)cc1` (stereo not drawn) [Example 121B, 4-(2-(4-(4-chloro-1H-imidazol-1-yl)-3-methoxyphenylamino)-4-(ethylamino)-7,8-dihydro-5H-pyrano[4,3-d]pyrimidin-8-yl)benzonitrile], the IC50 was 120 nM.
`COc1cc(Nc2nc3c(c(N4CC(C)(F)C4)n2)CCC3c2ccc(F)cc2)ccc1-n1cnc(Cl)c1` (stereo not drawn) [Example 190, N-(4-(4-chloro-1H-imidazol-1-yl)-3-methoxyphenyl)-4-(3-fluoro-3-methylazetidin-1-yl)-7-(4-fluorophenyl)-6,7-dihydro-5H-cyclopenta[d]pyrimidin-2-amine] was tested, and the IC50 was 37 nM.
For `CNc1nc(Nc2ccc(C#N)c(OC(F)(F)F)c2)nc2c1CCC2c1ccccc1` (stereo not drawn) [Example 246, 4-(4-(methylamino)-7-phenyl-6,7-dihydro-5H-cyclopenta[d]pyrimidin-2-ylamino)-2-(trifluoromethoxy)benzonitrile], the IC50 was 31 nM.
For `CNc1nc(Nc2ccc(-n3cnc(C#N)c3)c(OC)c2)nc2c1CCC2c1ccccc1` (stereo not drawn) [Example 204, 1-(2-methoxy-4-(4-(methylamino)-7-phenyl-6,7-dihydro-5H-cyclopenta[d]pyrimidin-2-ylamino)phenyl)-1H-imidazole-4-carbonitrile], the IC50 was 19 nM.

Same assay, conditions: H4 APP751 SWE clone 8.20 cells, 19 h incubation; class symbols; read-out: Activity Rating (Aβ42 cellular IC50)
In the case of `COc1cc(Nc2nc3c(c(N4CC(F)(F)C4)n2)COCC3c2ccc(F)cc2)ccc1-n1cnc(Cl)c1` (stereo not drawn) [Example 63A, N-(4-(4-chloro-1H-imidazol-1-yl)-3-methoxyphenyl)-4-(3,3-difluoroazetidin-1-yl)-8-(4-fluorophenyl)-7,8-dihydro-5H-pyrano[4,3-d]pyrimidin-2-amine], the IC50 is reported as 10 to 100 nM.
For `COc1cc(Nc2nc3c(c(N4CC(F)(F)C4)n2)COCC3c2ccc(F)c(F)c2)ccc1-n1cnc(Cl)c1` (stereo not drawn) [Example 114A, N-(4-(4-chloro-1H-imidazol-1-yl)-3-methoxyphenyl)-4-(3,3-difluoroazetidin-1-yl)-8-(3,4-difluorophenyl)-7,8-dihydro-5H-pyrano[4,3-d]pyrimidin-2-amine], the IC50 was 10 to 100 nM.
`COc1cc(Nc2nc(N[C@H](C)C3CC3)c3c(n2)C(c2ccc(C(F)(F)F)cc2)COC3)ccc1-n1cnc(Cl)c1` (stereo partly drawn) [Example 117A, N2-(4-(4-chloro-1H-imidazol-1-yl)-3-methoxyphenyl)-N4-((R)-1-cyclopropylethyl)-8-(4-(trifluoromethyl)phenyl)-7,8-dihydro-5H-pyrano[4,3-d]pyrimidine-2,4-diamine] showed an IC50 of 10 to 100 nM.
`COc1cc(Nc2nc3c(c(N4CCC(N(C)C)C4)n2)CCC3c2ccc(F)cc2)ccc1-n1cnc(Cl)c1` (single isomer, unassigned) [Example 29B, N-(4-(4-chloro-1H-imidazol-1-yl)-3-methoxyphenyl)-4-(3-(dimethylamino)pyrrolidin-1-yl)-7-(4-fluorophenyl)-6,7-dihydro-5H-cyclopenta[d]pyrimidin-2-amine] showed an IC50 of 10 to 100 nM.
`CNc1nc(Nc2ccc(-n3cnc(Cl)c3)c(OC)c2)nc2c1COCC2c1ccc(C(F)(F)F)cc1` (stereo not drawn) [Example 120A, N2-(4-(4-chloro-1H-imidazol-1-yl)-3-methoxyphenyl)-N4-methyl-8-(4-(trifluoromethyl)phenyl)-7,8-dihydro-5H-pyrano[4,3-d]pyrimidine-2,4-diamine] was tested, and the IC50 was 1.5 to 9.9 nM.
`CCNc1nc(Nc2ccc(-n3cnc(Cl)c3)c(OC)c2)nc2c1CN(C(=O)OC)CC2c1ccccc1` (stereo not drawn) [Example 131, Methyl 2-(4-(4-chloro-1H-imidazol-1-yl)-3-methoxyphenylamino)-4-(ethylamino)-8-phenyl-7,8-dihydropyrido[4,3-d]pyrimidine-6(5H)-carboxylate] gave an IC50 of 10 to 100 nM.
With `CNc1nc(Nc2ccc(-n3cnc(C)n3)c(F)c2)nc2c1CN(S(=O)(=O)C1CC1)CC2c1ccccc1` (stereo not drawn) [Example 141, 6-(cyclopropylsulfonyl)-N2-(3-fluoro-4-(3-methyl-1H-1,2,4-triazol-1-yl)phenyl)-N4-methyl-8-phenyl-5,6,7,8-tetrahydropyrido[4,3-d]pyrimidine-2,4-diamine] the IC50 was 10 to 100 nM.
`CCNc1nc(Nc2ccc(-n3cnc(Cl)c3)c(OC)c2)nc2c1CN(CC(F)(F)F)CC2c1ccccc1` (stereo not drawn) [Example 196] was tested, and the IC50 was 10 to 100 nM.
`COc1cc(Nc2nc3c(c(N4CC(C)(O)C4)n2)CCC3c2ccc(F)cc2)ccc1-n1cnc(Cl)c1` (stereo not drawn) [Example 189B, 1-(2-(4-(4-chloro-1H-imidazol-1-yl)-3-methoxyphenylamino)-7-(4-fluorophenyl)-6,7-dihydro-5H-cyclopenta[d]pyrimidin-4-yl)-3-methylazetidin-3-ol] was tested, and the IC50 was 10 to 100 nM.
For `COc1cc(Nc2nc3c(c(N(C)C)n2)COCC3c2ccc(F)cc2)ccc1-n1cnc(Cl)c1` (stereo not drawn) [Example 61B, N2-(4-(4-chloro-1H-imidazol-1-yl)-3-methoxyphenyl)-8-(4-fluorophenyl)-N4,N4-dimethyl-7,8-dihydro-5H-pyrano[4,3-d]pyrimidine-2,4-diamine], the IC50 was 10 to 100 nM.

Reference: US8637525B2, “Compounds for the reduction of beta-amyloid production” (Bristol-Myers Squibb Company, priority 2009, dated 2014)
